Structures are written as SMILES.

One data set concerns the target T1, human PPARα (Homo sapiens, UniProt Q07869).
T1 construct: The coding region of a human PPARα cDNA was inserted downstream of the CMV promoter; expressed in transfected cells; host or cells: Cos-7 cells, transient transfection (pcDNA3.1(−)-PPARα, pRSV-RXRα, 3xPPRE-TK-luc reporter, pRL-TK)
T1 sequence (Q07869 1-468): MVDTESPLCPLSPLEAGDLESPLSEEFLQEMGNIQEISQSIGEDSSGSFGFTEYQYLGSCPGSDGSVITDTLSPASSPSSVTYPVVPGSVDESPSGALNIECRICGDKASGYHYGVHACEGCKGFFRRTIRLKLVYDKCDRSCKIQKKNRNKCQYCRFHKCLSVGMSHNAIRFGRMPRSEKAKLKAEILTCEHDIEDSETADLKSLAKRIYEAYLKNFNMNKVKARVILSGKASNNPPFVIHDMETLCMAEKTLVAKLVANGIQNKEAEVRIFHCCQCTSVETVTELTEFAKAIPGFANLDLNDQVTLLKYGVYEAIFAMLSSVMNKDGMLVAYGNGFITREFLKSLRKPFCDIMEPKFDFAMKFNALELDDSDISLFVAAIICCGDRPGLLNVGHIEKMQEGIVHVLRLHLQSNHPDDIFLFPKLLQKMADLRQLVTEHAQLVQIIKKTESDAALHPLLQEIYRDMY
T1 sequence (P19793 1-462 partner): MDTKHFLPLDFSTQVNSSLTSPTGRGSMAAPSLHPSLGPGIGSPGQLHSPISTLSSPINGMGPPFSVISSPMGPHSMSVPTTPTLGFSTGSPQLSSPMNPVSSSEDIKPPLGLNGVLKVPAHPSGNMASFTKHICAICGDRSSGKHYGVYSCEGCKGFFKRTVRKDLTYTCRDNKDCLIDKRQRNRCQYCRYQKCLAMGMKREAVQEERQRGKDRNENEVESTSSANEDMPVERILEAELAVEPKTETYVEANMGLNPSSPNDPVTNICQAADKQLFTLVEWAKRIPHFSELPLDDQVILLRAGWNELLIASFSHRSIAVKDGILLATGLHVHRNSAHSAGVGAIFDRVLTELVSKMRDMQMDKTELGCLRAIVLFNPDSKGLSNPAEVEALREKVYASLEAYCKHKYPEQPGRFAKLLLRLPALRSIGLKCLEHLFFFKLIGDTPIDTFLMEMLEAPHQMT
The experiment in a line: PPARα reporter gene assay (firefly luciferase, transiently transfected Cos-7 cells). In kind it is cell-based.

In another data set the test system is interleukin-6 (IL-6). The data set is described as follows: Skin organotypic culture analysis: AP-induced IL-6 release into the medium. The note with it: 500 μM in medium, AP formulation topical, 24 h; Dunnet's test p<0.05. In kind it is cell-based. As for the experimental part:
(§1) The cultures were then incubated at 37° C., 5% CO2, and 95% relative humidity (standard cell culture conditions) for 24 h. The culture medium was assayed for the pro-inflammatory cytokine interleukin-6 (IL-6) and after washing to remove the AP formulation, the viability of the culture was determined using the Thiazoyl blue (MTT) assay (Mosmann, T. J. Immunol. Methods 65, p55 (1983). IL-6 was determined using an Immunoassay (Quantikine, R&D systems).
(§2) In this Example, skin organotypic cultures (Epiderm™, MatTek, USA) were treated topically with the above-identified AP formulation and the trans-10-cis-12 conjugated linoleic acid (TC CLA) was introduced into the medium. The cultures were then incubated at 37° C., 5% CO2, and 95% relative humidity (standard cell culture conditions) for 24 h. The culture medium was assayed for the pro-inflammatory cytokine interleukin-6 (IL-6) and after washing to remove the AP formulation, the viability of the culture was determined by the method described in Example 2.
(§3) The cultures were then incubated at 37° C., 5% CO2, and 95% relative humidity (standard cell culture conditions) for 24 hours. The culture medium was assayed for the pro-inflammatory cytokine interleukin-6 (IL-6) and after washing to remove the AP formulation, the viability of the culture was determined using the MTT assay. IL-6 was determined using an ELISA assay (R&D systems).

The subject of data set [1] is skin organotypic cultures (Epiderm). The data set is described as follows: Viability of skin organotypic cultures (MTT assay). The format is cell-based. As for the experimental part:
as §1, §2, §3
On the technique in general: Formazan colour is commonly taken as a measure of viable cells.

Data set [2] has as its system volunteers (volar forearm). The data set is described as follows: Human patch test irritation analysis. In kind it is in vivo. Conditions: 0.25% incorporated into the formulation; Wilcoxon signed rank test, 5% level.
Procedure: Patch tests were performed on mixed panel of 50 volunteers with age ranges between 18 and 55, using a double-blinded protocol with randomised patch sites. Samples (20 mg) were applied to a filter paper that was placed within a Finn™ chamber (0.8 cm internal diameter). The chambers were then attached to the volar forearm using Scanpore™ tape (Norgesplater, Nor.) and left for 47 h.

For the compound `CCCCCCCCCCC/C=C\CCCCC(=O)O` [Petroselinic acid, petroselinic acid], the “Result at (lowest administration level at which super or MS activity was achieved)” value on human PPARα turned out to be 100 μm. Also, the “Result (superior activity class achieved)” value on human PPARα (class reached) is “MS (more superior activity [MS] (100% higher—at least 3 times PPARα activation))”. In addition, the “Pass at (lowest tested administration level at which the test material passed)” value on human PPARα (pass = activation greater than oleic acid at 100 μM, commonly >1.57 times vehicle control, 24 h treatment) amounted to 10 μm. In addition, the “AP-induced IL-6 release” value in the data set on interleukin-6 (IL-6) is “significantly decrease”. The Culture viability entry is reported as “not significantly different” in data set [1] (Example 2: AP formulation alone vs AP formulation and petroselinic acid); “not significantly different” in data set [1] (Example 4: AP treatment alone vs AP and acid treatment). In addition, the “mitigation of irritation induced by the prototype pump spray” value in data set [2] is “significantly mitigated”.

The values above are taken from patent US6713051B2, “Antiperspirant or deodorant compositions” (Unilever Home & Personal Care USA division of Conopco, Inc., priority 2001, dated 2004).
